Results taken from PMC5701749 (Biochemistry, 2017).
“And” between values parts separate entries of the source, which are not always exact repeats. Equal values may be shown once. Read-outs that look alike come from different tables or passages of the source.

Tests used:
mouse P-gp mdr1a [1] = target: T1, mouse P-gp mdr1a (Mus musculus, UniProt P21447); conditions: DMPC nanodiscs; for V2 (rate of ATP hydrolysis at infinite substrate concentration): footnote a = parameter reaching constraint set at >0; for K1 (substrate concentration for half-maximal stimulation of ATPase activity): footnote d = ambiguous, lack of ATPase stimulation
murine P-gp [2] = target: T2, murine P-gp (Mus musculus, UniProt P21447); conditions: for displacement of BD-verapamil from P-gp (in words) / displacement of BD-vinblastine from P-gp (in words): FCS competition; for n (Hill coefficient): drug displacing BD-vinblastine from P-gp nanodiscs
murine P-gp [3] = target: T2, murine P-gp; experiment: biochemical
[4] = FCS binding of fluorescent probes to empty nanodiscs; conditions: ND = not determined because of minimal binding
mouse P-gp mdr1a [5] = target: T1, mouse P-gp mdr1a; conditions: E. coli lipid nanodiscs; for V1 (maximal rate of ATP hydrolysis when there is only activation): footnote b = parameter held constant
murine P-gp [6] = target: T2, murine P-gp
murine P-gp [7] = target: T2, murine P-gp; type: biochemical; conditions: inside-out murine P-gp vesicles, ATP-dependent, 117 nM Flutax-2, 37 °C
mouse P-gp = mouse P-gp (Mus musculus, UniProt P21447); experiment: ATPase assay in mouse P-gp vesicles; type: biochemical; conditions: concentration range studied
[8] = ATP and Vi (1 mM ATP, 240 μM Vi), vanadate-trapped, apparent KD
[9] = apo (control), nucleotide-free, apparent KD, high-affinity site

T2 sequence (P21447 whole entry): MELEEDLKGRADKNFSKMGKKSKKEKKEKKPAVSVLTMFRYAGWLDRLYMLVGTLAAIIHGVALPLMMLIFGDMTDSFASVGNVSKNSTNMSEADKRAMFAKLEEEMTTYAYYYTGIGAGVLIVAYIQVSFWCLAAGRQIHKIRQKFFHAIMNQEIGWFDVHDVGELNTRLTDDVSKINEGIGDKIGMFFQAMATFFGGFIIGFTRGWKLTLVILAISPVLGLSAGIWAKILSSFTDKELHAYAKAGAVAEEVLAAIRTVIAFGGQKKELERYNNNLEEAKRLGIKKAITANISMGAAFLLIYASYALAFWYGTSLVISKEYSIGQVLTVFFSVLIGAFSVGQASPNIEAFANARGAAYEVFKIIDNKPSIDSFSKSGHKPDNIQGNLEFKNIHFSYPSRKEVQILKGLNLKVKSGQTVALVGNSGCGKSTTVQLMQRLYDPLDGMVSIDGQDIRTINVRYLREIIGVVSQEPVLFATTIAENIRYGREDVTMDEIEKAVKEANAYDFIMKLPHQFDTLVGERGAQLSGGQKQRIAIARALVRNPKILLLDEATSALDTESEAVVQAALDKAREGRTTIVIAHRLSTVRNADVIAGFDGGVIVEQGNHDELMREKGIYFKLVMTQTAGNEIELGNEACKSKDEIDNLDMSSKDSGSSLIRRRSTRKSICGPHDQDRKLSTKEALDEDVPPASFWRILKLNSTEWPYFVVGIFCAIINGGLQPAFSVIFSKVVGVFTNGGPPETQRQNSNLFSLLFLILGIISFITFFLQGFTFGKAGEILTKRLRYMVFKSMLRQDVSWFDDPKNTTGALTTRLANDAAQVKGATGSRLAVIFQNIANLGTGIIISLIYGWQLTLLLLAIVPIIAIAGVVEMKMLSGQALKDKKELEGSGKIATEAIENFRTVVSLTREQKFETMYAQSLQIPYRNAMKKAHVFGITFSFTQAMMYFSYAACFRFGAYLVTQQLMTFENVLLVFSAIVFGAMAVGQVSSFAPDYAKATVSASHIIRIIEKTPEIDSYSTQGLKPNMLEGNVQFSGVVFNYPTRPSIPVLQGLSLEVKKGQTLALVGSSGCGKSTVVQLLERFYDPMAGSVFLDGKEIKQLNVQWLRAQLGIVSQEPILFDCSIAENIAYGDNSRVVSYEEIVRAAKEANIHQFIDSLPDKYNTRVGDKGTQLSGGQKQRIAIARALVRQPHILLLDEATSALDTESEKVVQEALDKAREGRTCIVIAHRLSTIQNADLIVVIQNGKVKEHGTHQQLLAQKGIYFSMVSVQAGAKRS
T1 sequence (P21447 whole entry): as above
Sequence of mouse P-gp (P21447 whole entry): as above

## CC(=O)O[C@H]1C(=O)[C@@]2(C)[C@H]([C@H](OC(=O)c3ccccc3)[C@]3(O)C[C@H](OC(=O)[C@H](O)[C@@H](NC(=O)c4ccccc4)c4ccccc4)C(C)=C1C3(C)C)[C@]1(OC(C)=O)CO[C@@H]1C[C@@H]2O [paclitaxel]
Mouse P-gp mdr1a [1]
  V2 (rate of ATP hydrolysis at infinite substrate concentration): 48 ± 6 nmol of Pi min^−1 mg^−1
  K1 (substrate concentration for half-maximal stimulation of ATPase activity): 1.3 ± 0.5 µM
Murine P-gp [2]
  displacement of BD-verapamil from P-gp (in words): did not displace
  displacement of BD-vinblastine from P-gp (in words): displaced
  n (Hill coefficient): 0.5 ± 0.5

## CC[C@]1(O)C[C@@H]2CN(CCc3c([nH]c4ccccc34)[C@@](C(=O)OC)(c3cc4c(cc3OC)N(C)[C@H]3[C@@](O)(C(=O)OC)[C@H](OC(C)=O)[C@]5(CC)C=CCN6CC[C@]43[C@@H]65)C2)C1 [vinblastine]
Mouse P-gp mdr1a [1]
  V2 (rate of ATP hydrolysis at infinite substrate concentration): >0 ^a nmol of Pi min^−1 mg^−1
  K1 (substrate concentration for half-maximal stimulation of ATPase activity): 2.6 ± 1.0 µM
Murine P-gp [3]
  IC50: 17500 ± 11000 nM
Murine P-gp [2]
  displacement of BD-verapamil from P-gp (in words): displaced
  displacement of BD-vinblastine from P-gp (in words): displaced
  n (Hill coefficient): 0.4± 0.1

## BODIPY FL verapamil [BD-verapamil]
[4]
  KD: negligible binding

## BODIPY vinblastine [BD-vinblastine]
Mouse P-gp mdr1a [5]
  V2 (rate of ATP hydrolysis at infinite substrate concentration): 156.5 ± 24.8 nmol of Pi min^−1 mg^−1
  stimulation of ATPase activity (in words): Neither BD-vinblastine or Flutax-2 stimulated ATPase activity
  V1 (maximal rate of ATP hydrolysis when there is only activation): 465 ^b nmol of Pi min^−1 mg^−1
Mouse P-gp mdr1a [1]
  stimulation of ATP hydrolysis over basal ATPase activity: ~ 2 fold
  V2 (rate of ATP hydrolysis at infinite substrate concentration): 21 ± 4 nmol of Pi min^−1 mg^−1
[4]
  Kd: 1700 nM and 1670 nM
Murine P-gp [6]; AMP-PNP (1 mM), apparent KD
  Kd: 83 ± 12 nM
Murine P-gp [6]; AMP-PNP vs nucleotide-free
  increase in KD (decrease in affinity) with AMP-PNP: 1.9 fold and 2 fold
Murine P-gp [6]; [8]
  Kd: 290 ± 40 nM
Murine P-gp [6]; ATP and Vi vs nucleotide-free
  increase in KD (decrease in affinity) in vanadate-trapped state: 6.8 fold
Murine P-gp [6]; [9]
  Kd: 42 ± 6 nM

## Oregon Green 488 Paclitaxel [Flutax-2]
Mouse P-gp mdr1a [5]
  V2 (rate of ATP hydrolysis at infinite substrate concentration): 33.2 ± 46.8 nmol of Pi min^−1 mg^−1
  stimulation of ATPase activity (in words): no stimulation
  V1 (maximal rate of ATP hydrolysis when there is only activation): 500 ^b nmol of Pi min^−1 mg^−1
Mouse P-gp mdr1a [5]; footnote d = ambiguous, lack of ATPase stimulation
  K1 (substrate concentration for half-maximal stimulation of ATPase activity): 0.2 ± 0.3 ^d μM
Murine P-gp [7]
  initial transport rate: ~42 pmol (mg of total protein)^−1 min^−1
Mouse P-gp
  stimulation of ATPase activity (in words): did not stimulate ATPase activity
Mouse P-gp mdr1a [1]
  stimulation of ATPase activity (in words): does not stimulate ATPase activity
  V2 (rate of ATP hydrolysis at infinite substrate concentration): 18 ± 2 nmol of Pi min^−1 mg^−1
  K1 (substrate concentration for half-maximal stimulation of ATPase activity): 0.3 ± 0.7 ^d μM
[4]
  Kd: 3600 nM and 3630 nM
Murine P-gp [6]; AMP-PNP (1 mM), apparent KD
  Kd: 530 ± 90 nM
Murine P-gp [6]; [8]
  Kd: 490 ± 80 nM
Murine P-gp [6]; [9]
  Kd: 520 ± 90 nM
Murine P-gp [6]; nucleotide-free, high-affinity interaction
  Kd: 519 nM
